Test results: publication PMC12704579, “New Anticancer 4‐Aryldihydropyrimidinone‐5‐Carboxylates Targeting Hsp90” (Chemical Biology & Drug Design, 2025)
≈ marks a conversion by molar mass, not a printed value. Like-named read-outs stand apart in the source and are kept apart here.

What was measured:
[1] = test system: SW-480 cells; assay: Colony forming assay, SW-480; format: cell-based, human
Method: (§1) Human Embryonic Kidney cells (HEK‐293) and human breast cancer cells (MCF‐7, MDA‐MB‐231 and HCC1954) were cultured in complete growth media: […] 1X (Gibco); 10% v/v Fetal Bovine Serum (FBS, Sigma Dorset UK) and L‐glutamine (2 mM, Invitrogen). SW‐480‐WT cells were maintained in selective media made up of Dulbecco's Modified Eagle Medium (Gibco), enriched with […] of Geneticin Selective Antibiotic (G418 Sulfate; Gibco, Thermo Fisher). Cells were incubated at a 5% CO2 atmosphere at 37°C.
(§2) Cells were seeded in a 12‐well plate at 400 cells per well. One hour after the seeding of the cells, compounds (1 mM, 100 μM, 10 μM, 1 μM, 100 nM, 10 nM) or vehicle were added into the wells in triplicate (DMSO vehicle 0.1% and 1%). After 7 days, colonies were stained with 350 μL of crystal violet solution, incubated for 30 min at room temperature, then wells were washed in water and dried. At least the best 3 independent experiments out of 5 independent repeats were used to perform the statistical analysis of the results. Colonies were counted by GelCount Colony Counter (Oxford Optronix Ltd.) using the GelCount 1.1.8.0 software. Assay end points were normalised to 0% (DMSO only) and fitted to a semi‐log plot using at least n = 3 technical replicates (n = 6 for DMSO control and N = 3 independent replicates). The curve fit was performed using GraphPad Prism. […]

[2] = test system: HCC1954 cells; assay: Colony forming assay, HCC1954; format: cell-based, human
Method: as §1, §2

[3] = molecular target: T1, hERG channel (Homo sapiens, UniProt Q12809); assay: hERG channel cardiotoxicity assay (Cyprotex)
T1 construct: Cyprotex Discovery Ltd., UK
Method: (§3) All the selected analogues were calculated to be compliant with the Lipinski rule‐of‐five guidelines for oral bioavailability. Furthermore, in vitro ADME (absorption, distribution, metabolism, excretion) properties were assessed as an outsourced service (Cyprotex Discovery Ltd., UK; part of the EvoTec Group); profiling membrane permeability (Caco‐2 cell model), hERG channel cardiotoxicity, human microsomal stability and turbidometric solubility (Table 4).

[4] = test system: MDA-MB-231 cells; assay: CellTiter-Blue cell viability assay, MDA-MB-231 (24 h); format: cell-based, human; conditions: for GI50 / viability at 10 µM: Homo sapiens, MDA-MB-231, 24 h; for GI50: 24 h incubation time
Method: as §1
Cells were cultured in 96‐well plates in 90 μL at a seeding density of 1 × 10^6 cells per well. Compound samples were prepared at different concentrations (1 mM, 100 μM, 10 μM, 1 μM, 100 nM, 10 nM) and 10 μL of each concentration was seeded in each well. Two different negative controls were used: DMSO 0.01% and 0.001%. Paclitaxel (30% w/v) was used as a positive control. Cells were treated for 24 h after which 20 μL of CellTitre‐Blue reagent (Promega, Southampton, UK) was added and incubated for 2 h at 37°C in 5% CO2. Fluorescence was measured at 560/590 nm on a Fluorostar Optima plate reader (BMG Labtech, Bucks, UK). Assay end points were normalised to 0% (DMSO only) and fitted to a semilog plot using at least n = 3 technical replicates (n = 6 for DMSO control and paclitaxel control) and N = 3 independent replicates. The curve fit was performed using the GraphPad Prism software and the standard Hill equation.
In view of previous reports on Hsp90 inhibitors and their effects on cancer cell viability (Eachkoti et al. [2014]) and clonogenicity (Kinzel et al. [2016]), new compounds were tested for inhibition of cell viability within both non‐tumourigenic (HEK‐293) and breast cancer cell lines (MDA‐MB‐231) at a fixed concentration of 10 μM. The well‐established CellTiter‐Blue endpoint assay was used to assess cell viability. New compounds were also assessed in a colony forming assay (MCF‐7 breast cancer cell line), used as an efficacy screening to provide an indication of the inhibition of clonogenicity for these small molecules (Table 1).

[5] = molecular target: T2, Recombinant human Hsp90 alpha protein (Homo sapiens, UniProt P07900); assay: Transcreener ADP FP Hsp90 ATPase assay; format: biochemical; conditions: Recombinant human HSP90, 100 μM ATP; read-out: ATPase assay on rh-Hsp90 IC50
T2 construct: human full‐length protein, expressed in Escherichia coli; His tag (C); purchased Abcam ab80369; host or cells: Escherichia coli
Method: Transcreener ADP (cat. no. 3004‐1K) and ADP2 (cat. no. 3010‐1K) FP assay kits were obtained from Bellbrook Laboratories. Recombinant human Hsp90 alpha protein (active), human full‐length protein, expressed in Escherichia coli with > 90% purity and C‐terminus His tag, was purchased from Abcam (ab80369). All FP assays were carried out in black, 384‐well, low‐volume, polystyrene nonbinding microplates from Corning Life Sciences. All basic buffer components were obtained from Sigma‐Aldrich Chemical Co. 17‐AAG (Figure 1) was obtained from Abcam. Using the Transcreener ADP FP kit, the conditions for the recombinant human Hsp90 ATPase reaction were 50 mM HEPES (pH 7.4), 20 mM KCl, 2 mM EGTA, 4 mM MgCl2, and 0.01% Brij‐35 in a 10‐μL total assay volume. The final assay concentration of ATP was 100 μM for Hsp90. Due to the relatively low level of ATPase activity compared with other enzymes, the plate was incubated at 37°C and run over 1, 2 and 3 h time points. The reaction was stopped, and the ADP was detected by adding 10 μL of 50 mM HEPES (pH 7.4), 400 mM NaCl, 20 mM EDTA, 0.01% Brij35, 75 μg/mL anti‐ADP monoclonal antibody, and 4 nM ADP far red tracer. The plate was sealed, centrifuged at 600 g for 1 min, and left at room temperature for 1 h. FP readings for the Hsp90 ATPase Transcreener assays were performed on a Clariostar plate reader ([…]). A blank mP signal composed of protein, antibody, labelled ADP, but no ATP substrate gave similar mP values to those seen in the no‐protein controls. The upper limit of the assay window was defined by a no‐protein control, and the mP in the presence of heat shock protein was subtracted from this control to generate a change in polarisation (ΔmP), which was plotted on the activity graphs. Therefore, the data take into account the spontaneous hydrolysis of ATP. Each value is the mean of triplicate determinations with standard deviations (SD) shown. IC50 values were calculated using GraphPad Prism software with the nonlinear regression curve fitted to the log (inhibitor concentration) against the raw mP values on the linear portion of the standard curve.

[6] = Turbidometric solubility (Cyprotex); format: physicochemical; conditions: kinetic from dmso stock
Method: as §3

[7] = CellTiter-Blue, 24 h incubation, 10 μM test compound, standardised to DMSO control
[8] = read-out: Solubility - estimated precipitation range, Calc. mid-range
[9] = read-out: Solubility - estimated precipitation range, Lower-bound
[10] = read-out: Solubility - estimated precipitation range, Upper-bound

T1 sequence (Q12809 whole entry): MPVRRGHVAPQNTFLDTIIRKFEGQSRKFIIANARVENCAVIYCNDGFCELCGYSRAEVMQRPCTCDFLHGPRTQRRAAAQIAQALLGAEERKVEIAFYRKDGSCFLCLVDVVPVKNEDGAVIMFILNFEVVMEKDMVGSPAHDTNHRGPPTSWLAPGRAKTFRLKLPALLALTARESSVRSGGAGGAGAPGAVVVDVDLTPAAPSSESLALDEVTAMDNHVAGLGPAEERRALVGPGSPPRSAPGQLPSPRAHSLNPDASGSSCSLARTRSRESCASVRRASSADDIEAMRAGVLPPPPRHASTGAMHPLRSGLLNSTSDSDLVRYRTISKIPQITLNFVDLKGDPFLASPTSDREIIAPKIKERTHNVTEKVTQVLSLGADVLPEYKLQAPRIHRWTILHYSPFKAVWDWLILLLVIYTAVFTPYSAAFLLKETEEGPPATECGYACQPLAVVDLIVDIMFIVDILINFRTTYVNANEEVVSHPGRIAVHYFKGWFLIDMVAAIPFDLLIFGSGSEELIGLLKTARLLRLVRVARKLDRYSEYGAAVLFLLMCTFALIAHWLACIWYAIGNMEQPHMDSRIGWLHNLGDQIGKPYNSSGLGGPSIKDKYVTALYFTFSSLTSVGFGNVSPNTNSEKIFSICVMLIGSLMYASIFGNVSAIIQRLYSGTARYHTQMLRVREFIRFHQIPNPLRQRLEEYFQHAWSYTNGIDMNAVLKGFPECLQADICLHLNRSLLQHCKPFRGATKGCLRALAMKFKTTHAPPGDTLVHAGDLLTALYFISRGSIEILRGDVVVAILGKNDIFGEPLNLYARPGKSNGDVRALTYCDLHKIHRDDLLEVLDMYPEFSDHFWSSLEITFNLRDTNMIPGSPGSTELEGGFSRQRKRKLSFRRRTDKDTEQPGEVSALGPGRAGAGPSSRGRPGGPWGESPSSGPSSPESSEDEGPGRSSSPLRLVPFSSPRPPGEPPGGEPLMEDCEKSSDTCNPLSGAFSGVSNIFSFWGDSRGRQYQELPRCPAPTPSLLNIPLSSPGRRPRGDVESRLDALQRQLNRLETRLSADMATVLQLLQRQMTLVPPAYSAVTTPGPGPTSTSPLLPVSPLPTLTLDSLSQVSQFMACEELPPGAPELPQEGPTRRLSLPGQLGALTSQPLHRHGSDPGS

| Compound | Percentage of surviving colonies, SW-480 ([1]; 7 days treatment at 10 μM) | IC50 ([1]; Homo sapiens, SW480, read-out: Colony formation IC50, SW-480) | Percentage of surviving colonies, HCC1954 ([2]; 7 days treatment at 10 μM) | IC50 ([2]; Homo sapiens, HCC1954, read-out: Colony formation IC50, HCC1954) | IC50 [3] | GI50 [4] | viability at 10 µM [4, 7] | IC50 [5] | solubility [6, 8] | solubility [6, 9] | solubility [6, 10] | % Viability (MDA-MB-231, 10 μM) ([4]; CellTiter-Blue, 24 h incubation, 10 μM test compound, standardised to DMSO control, 10 µM) |
| --- | --- | --- | --- | --- | --- | --- | --- | --- | --- | --- | --- | --- |
| COc1ccc(C2NC(=O)NC(C)=C2C(=O)OCc2ccc3c(c2)OCO3)c(F)c1 (stereo not shown) [Compound 5d, Benzo[d][1,3]dioxol‐5‐ylmethyl‐4‐(2‐Fluoro‐4‐Methoxyphenyl)‐6‐Methyl‐2‐Oxo‐1,2,3,4‐Tetrahydropyrimidine‐5‐Carboxylate] | 57.9% ± 2.0 | 1.21 µM | 8.8% ± 4.0 | 0.56 µM | > 25 µM | 79.3 µM | 86.3 ± 3.8% | 3.25 µM | 3.75 µM (≈ 1.55 µg/mL) | 1 µM (≈ 0.414 µg/mL) | 6.5 µM (≈ 2.69 µg/mL) |  |
| COc1ccc(COC(=O)C2=C(C)NC(=O)NC2c2ccc(Cl)cc2)cc1C (stereo not shown) [Compound 5e, 4‐Methoxy‐3‐Methylbenzyl‐4‐(4‐Chlorophenyl)‐6‐Methyl‐2‐Oxo‐1,2,3,4‐Tetrahydropyrimidine‐5‐Carboxylate] |  |  |  |  | > 25 µM | 12.6 µM | < 80% | 6.4 µM | 65 µM (≈ 26.1 µg/mL) | 30 µM (≈ 12 µg/mL) | 100 µM (≈ 40.1 µg/mL) | 79.43 ± 8.8% |
